Tested on: human whole blood
Experiment: human whole blood assay verifying inhibitory activity of the inhibitor samples
Format: cell-based

CC(c1cc2ccccc2s1)N(O)C(N)=O (stereo not shown) [Zileuton]
inhibitory activity in a human whole blood assay: verified

— patent US20090155784A1, “ASSESSMENT OF ASTHMA AND ALLERGEN-DEPENDENT GENE EXPRESSION” (Wyeth, priority 2007, published 2009)
